In patent US7285569B2, “Tricycles, their manufacture and use as pharmaceutical agents” (Hoff Hoffmann-La Roche Inc., priority 2004, dated 2007):

Tests used:
[1] = molecular target: T1, Aurora A (Homo sapiens, UniProt O14965); assay: IC50 determination for inhibitors of Aurora A (96 MTP-ELISA); format: biochemical; conditions: His4-tagged full-length Aurora A 250 ng/ml, PKB-GSK2 200 nM, ATP 4 μM, 90 min at room temperature; read-out: IC50 Aurora A kinase inhibition
T1 construct: C-terminally Histidine4 (His4)-tagged Aurora A full-length protein
T1 sequence (O14965 1-403): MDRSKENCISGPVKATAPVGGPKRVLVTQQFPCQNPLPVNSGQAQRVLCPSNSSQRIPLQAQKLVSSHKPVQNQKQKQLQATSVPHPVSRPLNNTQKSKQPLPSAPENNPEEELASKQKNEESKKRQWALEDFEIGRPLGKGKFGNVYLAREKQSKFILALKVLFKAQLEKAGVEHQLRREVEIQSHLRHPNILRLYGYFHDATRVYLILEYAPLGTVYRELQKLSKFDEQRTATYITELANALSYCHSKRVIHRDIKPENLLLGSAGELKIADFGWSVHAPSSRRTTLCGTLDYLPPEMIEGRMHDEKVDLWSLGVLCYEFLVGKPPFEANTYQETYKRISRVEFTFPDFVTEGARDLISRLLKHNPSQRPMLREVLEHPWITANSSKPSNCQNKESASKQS
Description: IC50 Determination for Inhibitors of Aurora A
Aurora A is a serine threonine kinase involved in spindle assembly and chromosome segregation.
The assay is a typically ELISA-type assay where biotinylated substrate (PKB-GSK2) is phosphorylated. Phosphorylation is detected by peroxidase (POD) labelled polyclonal antibody (PAK<M-Ig>S-IgG-POD) and phosphopeptide monoclonal antibody (Mab) (MAK<P-GSK>M-27E5-IgG). The assay is validated for IC50-determination.
Aurora A-His-4 C-terminally Histidine4 (His4)-tagged Aurora A full-length protein, stock solution 0.7 mg/ml, final conc.: 250 ng/ml
PKB-GSK2 biotinylated peptide derived from human GSK3-alpha sequence (Biotin-SGRARTSSFAEPGG-CONH2), stock solution 600 μM, final conc.: 200 nM
ATP Adenosine-5′-triphosphate 1 mM, diluted in kinase buffer, (Roche Diagnostics GmbH, Cat. No.: 127531-001,), final conc.: 4 μM
Kinase buffer 50 mM TRIS, 10 mM MgCl2, 1 mM DTT, 0.1% Tween 20, pH 7.8
This assay is performed in 96-well format for IC50 determination with 5 samples (each with 8 concentrations by twofold testing), 100 μl incubation volume and the following plate layout:
Step/Action 1. Sample preparation: add 24 μl per well samples (descending sequence) diluted in kinase buffer to assay plate (final conc. for DMSO 1%). 2. Add directly 16 μl Aurora-A-his-4 diluted in kinase buffer to assay plate. 3. Add directly 40 μl per well PKB-GSK2/ATP mixture to assay plate, (final conc.: Aurora A=250 ng/ml, GSK2=200 nM, ATP=4 μM). Negative control: without ATP. 4. Incubate assay plate for exactly 90 min at room temperature. 5. Stop reaction by adding 20 μl EDTA in all wells. 6. Wash assay plate 3× with 200 μl washing buffer per well. 7. Add 100 μl MAK<P-GSK>M27E5-IgG (1:10000) and PAK<M-Ig>S-IgG-POD (1:6000) dissolved in 3% BSA/PBS-T to assay plate per well. 8. Incubate assay plate for 60 min at room temperature. 9. Wash assay plate 3× with 200 μl washing buffer per well 10. Add 100 μl ABTS solution to assay plate per well, incubate for approx. 4 min at RT on MTP shaker. 11. Measure absorption at 405/492 nm. 12. Calculate % inhibition as: (1−(Esample−ENC)/(EPC−ENC))×100 13. Calculate IC50 using a non-linear curve fit (XLfit software (ID Business Solution Ltd., Guilford, Surrey, UK))

[2] = tested on: HCT 116 cells; assay: CellTiter-Glo assay in HCT 116 cells (antiproliferative activity); format: cell-based; conditions: HCT 116 human colon carcinoma cells, 5 days (120 h) incubation, CellTiter-Glo luminescence
Description: Antiproliferative Activity
CellTiter-Glo™ Assay in HCT 116 Cells
The CellTiter-Glo™ Luminescent Cell Viability Assay (Promega) is a homogeneous method of determining the number of viable cells in culture based on quantitation of the ATP present, which signals the presence of metabolically active cells.
HCT 116 cells (human colon carcinoma, ATCC-No. CCI-247) were cultivated in RPMI 1640 medium with GlutaMAX™ I (Invitrogen, Cat-No. 61870-010), 2.5% Fetal Calf Serum (FCS, Sigma Cat-No. F4135 (FBS)); 100 Units/ml penicillin/100 μg/ml streptomycin (=Pen/Strep from Invitrogen Cat. No. 15140). For the assay the cells were seeded in 384 well plates, 1000 cells per well, in the same medium. The next day the test compounds were added in various concentrations ranging from 30 μM to 0.0015 μM (10 concentrations, 1:3 diluted). After 5 days the CellTiter-Glo™ assay was done according to the instructions of the manufacturer (CellTiter-Glo™ Luminescent Cell Viability Assay, from Promega). In brief: the cell-plate was equilibrated to room temperature for approximately 30 minutes and than the CellTiter-Glo™ reagent was added. The contents were carefully mixed for 15 minutes to induce cell lysis. After 45 minutes the luminescent signal was measured in Victor 2, (scanning multiwell spectrophotometer, Wallac).
Medium: RPMI 1640 with GlutaMAX™ I (Invitrogen, Cat-Nr. 61870), 5% FCS (Sigma Cat.-No. F4135), Pen/Strep (Invitrogen, Cat No. 15140).
HCT116 (ATCC-No. CCI-247): 1000 cells in 60 μl per well of 384 well plate (Greiner 781098, μClear-plate white)
After seeding incubate plates 24 h at 37° C., 5% CO2
2nd. Day: Induction (Treatment with Compounds, 10 Concentrations):
In order to achieve a final concentration of 30 μM as highest concentration 3.5 μl of 10 mM compound stock solution were added directly to 163 μl media. Then step e) of the dilution procedure described below, was followed.
In order to achieve the second highest to the lowest concentrations, a serial dilution with dilution steps of 1:3 was followed according to the procedure (a-e) as described here below: • for the second highest concentration add 10 μl of 10 mM stock solution of compound to 20 μl dimethylsulfoxide (DMSO) • dilute 8×1:3 (always 10 μl to 20 μl DMSO) in this DMSO dilution row (results in 9 wells with concentrations from 3333.3 μM to 0.51 μM) • dilute each concentration 1:47.6 (3.5 μl compound dilution to 163 μl media) • add 10 μl of every concentration to 60 μl media in the cell plate resulting in final concentration of DMSO: 0.3% in every well and resulting in 10 final concentration of compounds ranging from 30 μM to 0.0015 μM. • Each compound is tested in triplicate. • Incubate 120 h (5 days) at 37° C., 5% CO2 Analysis:
Add 30 μl CellTiter-Glo™ Reagent (prepared from CellTiter-Glo™ Buffer and CellTiter-Glo™ Substrate (lyophilized) purchased from Promega) per well, • shake 15 minutes at room temperature • incubate further 45 minutes at room temperature without shaking Measurement:
Victor 2 scanning multiwell spectrophotometer (Wallac), Luminescence mode (0.5 sec/read, 477 nm)
Determine IC50 using a non-linear curve fit (XLfit software (ID Business Solution Ltd., Guilford, Surrey, UK))

IC50 [1] [nM] | IC50 [2] [µM] | SMILES
10 to 500 | 0.1 to 10 | CCCc1cc(-c2nc3cc4c(cc3[nH]2)N(CCC)C(=O)C4(C)C)[nH]n1 [Example 37, 7,7-Dimethyl-5-propyl-2-(5-propyl-2H-pyrazol-3-yl)-5,7-dihydro-3H-imidazo[4,5-f]indol-6-one]
500 to 1500 | 0.1 to 10 | CCCN1C(=O)C(C)(C)c2cc3[nH]c(-c4cc(C(F)(F)F)n[nH]4)nc3cc21 [Example 41, 7,7-Dimethyl-5-propyl-2-(5-trifluoromethyl-2H-pyrazol-3-yl)-5,7-dihydro-1H-imidazo[4,5-f]indol-6-one]
